Experiment [1] deals with T1, eukaryotic initiation factor 2 subunit alpha (eIF2α) (Homo sapiens, UniProt P05198).
T1 construct: gene EIF2S1; native endogenous protein in KB-3-1 cell lysate (M-PER), 36 kDa band; alpha subunit of the heterotrimeric eIF2 complex; detected by western blot
Description: DARTS (pronase protection, western blot). It is filed as biochemical. As to conditions: KB-3-1 cell lysate; native protein; 2 h at room temperature with compound, pronase 30 min at 37 °C; indirect binding evidence. In general terms: In western blotting, separated proteins are transferred to a membrane and probed.

The test system of another experiment is PC-3. In words: cells. Particulars: Homo sapiens, PC-3; read-out: Gephyronic acid IC50. More on the design: species or system transformed mammalian cell lines; MTT assay (formazan absorbance at 595 nm), anti-proliferative activity on transformed cell lines.
Another experiment concerns KB-3-1. Description: cells. Particulars: Homo sapiens, KB 3-1; read-out: Gephyronic acid IC50. More on the design: species or system transformed mammalian cell lines; MTT assay (formazan absorbance at 595 nm), anti-proliferative activity on transformed cell lines.
Another experiment deals with L-929. Description: cells. More on the design: species or system transformed mammalian cell lines; MTT assay (formazan absorbance at 595 nm), anti-proliferative activity on transformed cell lines. Particulars: Mus musculus, L929; read-out: Gephyronic acid IC50.
In the next experiment the test system is MCF-7. Description: cells. More on the design: species or system transformed mammalian cell lines; MTT assay (formazan absorbance at 595 nm), anti-proliferative activity on transformed cell lines. Particulars: Homo sapiens, MCF7; read-out: Gephyronic acid IC50.
The subject of the next experiment is A-549. In words: cells. Particulars: Homo sapiens, A549; read-out: Gephyronic acid IC50. More on the design: species or system transformed mammalian cell lines; MTT assay (formazan absorbance at 595 nm), anti-proliferative activity on transformed cell lines.
Experiment [2] concerns the target T1, eukaryotic initiation factor 2 subunit alpha (eIF2α). Description: pull-down with streptavidin beads, western blot. It is filed as biochemical. As to conditions: KB-3-1 cell lysate; native protein; 4 °C 1 h with compound; labelled compound; indirect binding evidence.

Structures are written as SMILES.

T1 sequence (P05198 whole entry): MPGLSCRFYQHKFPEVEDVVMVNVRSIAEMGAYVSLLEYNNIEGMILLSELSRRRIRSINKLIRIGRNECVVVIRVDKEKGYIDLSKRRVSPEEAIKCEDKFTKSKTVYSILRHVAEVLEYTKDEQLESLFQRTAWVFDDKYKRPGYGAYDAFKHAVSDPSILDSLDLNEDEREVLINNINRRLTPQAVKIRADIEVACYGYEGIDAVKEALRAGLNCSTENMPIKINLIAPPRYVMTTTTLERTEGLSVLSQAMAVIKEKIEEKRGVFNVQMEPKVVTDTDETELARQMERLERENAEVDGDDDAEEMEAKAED

The IC50 is the concentration at which inhibition is half-maximal. As to `CO[C@@H]([C@H](C)[C@@H](O)CC(=O)O)C(C)(C)C(=O)[C@@H](C)C[C@H](C)[C@H](O)[C@@]1(C)O[C@@H]1[C@@H](C)C=C(C)C` [compound 1, gephyronic acid], the “DARTS (pronase protection, western blot)” value in experiment [1] is listed as “GA binding protected the initiation factor eIF2α in a dose dependent manner”. Also, the IC50 in the experiment on PC-3 is 6 nM; in the experiment on KB-3-1 it was 14 nM; in the experiment on L-929, 100 nM; with MCF-7, 14 nM; in the experiment with A-549, 8 nM.
For the compound `COC(=O)C[C@H](OC(=O)CCCC[C@@H]1SC[C@@H]2NC(=O)N[C@@H]21)[C@@H](C)[C@H](OC)C(C)(C)C(=O)[C@@H](C)C[C@H](C)[C@H](O)[C@]1(C)O[C@@H]1[C@@H](C)C=C(C)C` [4b, biotinylated GA methyl ester 4b], the “pull-down with streptavidin beads, western blot” value in experiment [2] was “eIF2α was clearly present in preparations with biotinylated GA ester”.

The record behind these values is paper PMC6067752, “Investigations on the mode of action of gephyronic acid, an inhibitor of eukaryotic protein translation from myxobacteria” (PLoS ONE, 2018).
